Here are results for 5 molecules from patent US7518005B2, “Water-soluble anti-dandruff compounds and compositions thereof” (Galaxy Surfactants Limited, priority 2005, dated 2009).

In data set [1] the test system is M. furfur. The data set is described as follows: Zone of inhibition of M. furfur in SLES, comparison with Undecylenic amido propyl betain (Example 7). It is filed as cell-based. The text has this:
Undecylenic amido propyl betain is a reported anti-dandruff product, so Undecylenic amidopropyl dimethyl Hydroxy ethyl ammonium undecylenate was compared. Carried out of zone of inhibition of M. furfur against 1, 2%, 5% & 7% Undecylenic amido propyl betain in SLES and compared it with Undecylenic amido propyl dimethyl Hydroxy ethyl ammonium undecylenate

Data set [2] deals with M. furfur. The data set is described as follows: Zone of inhibition against M. furfur, comparison with other known anti-dandruff agents (Example 5). It is filed as cell-based. The source says: M. furfur is one of the microorganism, which causes dandruff Method of Analysis: Zone of Inhibition Principle: Larger the zone of inhibition greater is the anti-dandruff activity.

The nature of data set [3]: Viscosity booster effect in shampoo formulation. Conditions: 15% active sodium lauryl ether sulfate, 2% booster.

For the molecule `C=CCCCCCCCCC(=O)NCCC[N+](C)(C)CC(=O)[O-]` [Undecylenic amidopropyl betaine], the Comments entry in the data set on M. furfur [1] (1%) is listed as “Less”; in the data set on M. furfur [1] (2%), “Less”; in the data set on M. furfur [1] (5%) it was “Less”; in the data set on M. furfur [1] (7%), “Effective”. For the same molecule, the “Zone of inhibition in mm” value in the data set on M. furfur [1] (1%) is 3 mm; in the data set with M. furfur [1] (2%), 6 mm; in the data set on M. furfur [1] (5%), 6 mm; in the data set with M. furfur [1] (7%), 8 mm.

For `C=CCCCCCCCCC(=O)NCCC[N+](C)(C)CCOCCO.[Cl-]` [Undecylenic amidopropyl dimethyl Hydroxy ethoxy ethyl ammonium chloride], the Comments result in the data set on M. furfur [2] (Concent. 0.5%) is reported as “Less”; in the data set with M. furfur [2] (Concent. 1%), “Less”; in the data set on M. furfur [2] (Concent. 1.5%), “Less”; in the data set on M. furfur [2] (Concent. 2%), “Effective”. Further, the “Zone of inhibition in mm” value worked out at 2 mm in the data set with M. furfur [2] (Concent. 0.5%), 3 mm with M. furfur [2] (Concent. 1%), 6 mm with M. furfur [2] (Concent. 1.5%) and 8 mm with M. furfur [2] (Concent. 2%).

Turning to `C=CCCCCCCCCC(=O)NCCO` [Undecylenic mono ethanolamide], the Comments result was “Not effective” with M. furfur [2] (Concent. 0.5%), “Less” in the data set with M. furfur [2] (Concent. 1%), “Less” with M. furfur [2] (Concent. 1.5%) and “Less” in the data set on M. furfur [2] (Concent. 2%). Further, the “Zone of inhibition in mm” value in the data set with M. furfur [2] (Concent. 0.5%) amounted to 0 mm; in the data set on M. furfur [2] (Concent. 1%), 2 mm; in the data set with M. furfur [2] (Concent. 1.5%), 4 mm; with M. furfur [2] (Concent. 2%), 6 mm.

Cocomonoethanolamide [CMEA]: the “Viscosity in cps at 28° C.” value was 55 cps in data set [3] (Sodium chloride 0.5%); 600 cps in data set [3] (Sodium chloride 1.0%); 3000 cps in data set [3] (Sodium chloride 1.5%); 11000 cps in data set [3] (Sodium chloride 2.0%); 17000 cps in data set [3] (Sodium chloride 2.5%).

As to “Undecylenic monoethanol amido sulfosuccinate”, the Comments result in the data set on M. furfur [2] (Concent. 0.5%), with M. furfur [2] (Concent. 1%), in the data set on M. furfur [2] (Concent. 1.5%) and in the data set on M. furfur [2] (Concent. 2%) was “Not effective” each time. In addition, the “Zone of inhibition in mm” value in the data set on M. furfur [2] (Concent. 0.5%), in the data set on M. furfur [2] (Concent. 1%), in the data set with M. furfur [2] (Concent. 1.5%) and in the data set on M. furfur [2] (Concent. 2%) was 0 mm in each case.
